Assay results reported in paper PMC7557402, “Evaluation of Nucleoside Analogs as Antimicrobials Targeting Unique Enzymes in Borrelia burgdorferi” (Pathogens, 2020).

How the values were obtained:
[1] = system: Borrelia MTANs (Bgp, MtnN, Pfs); assay: MTAN activity/kinetics, across the nucleosidases; assay type: biochemical; conditions: range over the B. burgdorferi nucleosidases
Procedure: (§1) Enzyme specific activities were determined using previously reported optimal pH conditions (50 mM sodium phosphate, pH = 7, for Bgp, MtnN; 50 mM sodium phosphate-citrate, pH = 5, for Pfs) and a spectrophotometric activity assay that measures the decrease in UV absorbance at 275 nm that occurs when MTA is cleaved to 5-methylthioribose and adenine (ε275 = 1.6 mM^−1cm^−1). The extinction coefficients for cleavage of other nucleosides were experimentally validated and found to be the same for MSeA, FSBA, and IADO (ε275 = 1.6 mM^−1cm^−1). Due to the added UV absorbance imparted by the 5′ purine group found in PurTA, the enzyme reactions were followed spectrophotometrically at 260 nm using the experimentally determined extinction coefficient of ε260 = 5.6 mM^−1cm^−1. Enzyme specific activities for MTA were generally 1–2 U/mg (1 U = µmol MTA hydrolyzed/min). The enzyme specific activities for other nucleosides were determined and reported in U/mg and as the % max specific activity (relative to MTA at 100%).
(§2) Kinetic constants have been previously reported for MTA [18]. As MSeA was also an efficient substrate for the B. burgdorferi nucleosidases, kinetic constants were determined using the activity assay described above, varying the nucleoside concentrations from 1 to 20 µM, and fitting the data on substrate-velocity plots to the Michaelis–Menten equation using GraphPad Prism (version 6):(1) Vo=Vmax[S]/Km+[S]
(§3) For the other compounds, inhibition constants (Ki’s) were determined as previously described, using an MTA concentration of 100 µM and varying the inhibitor concentration from 0 to 100 µM. The inhibited velocity (Vo’) and uninhibited velocity (Vo) values were determined, and the ratio of Vo’/Vo plotted as a function of inhibitor concentration. Ki values were calculated from these plots by fitting the data to the equation for competitive inhibition using GraphPad Prism:(2) Vo^′/Vo=Km+[S]/Km+[S]+(Km[I]/Ki)

[2] = system: B. burgdorferi N40; assay: Subculture without inhibitor after 7 days of treatment: bacteriostatic versus bactericidal; assay type: cell-based, Borrelia burgdorferi
Procedure: After 7 days of treatment, a 5 µL aliquot from each treatment tube (and untreated control) was added to 1 mL of BSKII-RS medium to allow any remaining viable spirochetes in the sample to grow. After incubation for 7–21 days at 33 °C, the survival of the spirochetes was determined using dark-field microscopy to observe motility and by employing bioluminescence measurements to assess vitality of the recovered culture.
To further differentiate between bacteriostatic versus bactericidal activities of MTAN inhibitors, we subcultured drug treated spirochetes in the absence of inhibitors to recover any live B. burgdorferi remaining after seven days of inhibitor treatment (summarized in Table 4). If non-motile spirochetes from treated cultures were able to grow back, the inhibitor was determined to have a bacteriostatic effect at the selected concentration. […] Spirochete survival was determined by both dark-field microscopy and bioluminescence measurements. Microscopic examination allowed assessment of motility of the spirochetes whereas bioluminescence assays assessed recovery and viability of B. burgdorferi cells. […] By comparison, a reduction in bioluminescence compared to the untreated control was observed after treatment with dEt-ImmA at a 0.4 µM or greater concentration. […] After seven days of treatment, live spirochetes were only recovered when concentrations of ≤0.4 µM were used for dEt-ImmA and IADO.

[3] = target: T1, Pfs (Borreliella burgdorferi, UniProt O50162); assay: MTAN inhibition constants (competitive inhibition of MTA hydrolysis); assay type: biochemical, Borrelia burgdorferi; conditions: MTA 100 µM, inhibitor 0 to 100 µM, read-out: Ki (inhibition constant)
T1 sequence (O50162 entry or part of it): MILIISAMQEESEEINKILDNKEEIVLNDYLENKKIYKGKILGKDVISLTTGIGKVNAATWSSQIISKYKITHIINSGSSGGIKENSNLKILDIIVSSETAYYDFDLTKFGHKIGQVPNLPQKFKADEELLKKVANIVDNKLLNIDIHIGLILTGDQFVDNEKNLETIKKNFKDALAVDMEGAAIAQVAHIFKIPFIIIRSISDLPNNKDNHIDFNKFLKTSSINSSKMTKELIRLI
Procedure: as §3
(§4) The enzyme inhibition constant and delayed onset inhibition constant for dET-ImmA was previously reported.

[4] = target: T2, MtnN (Borreliella burgdorferi, UniProt O50860); assay: as above; assay type: biochemical, Borrelia burgdorferi; conditions: MTA 100 µM, inhibitor 0 to 100 µM, read-out: Ki (inhibition constant)
T2 sequence (O50860 entry or part of it): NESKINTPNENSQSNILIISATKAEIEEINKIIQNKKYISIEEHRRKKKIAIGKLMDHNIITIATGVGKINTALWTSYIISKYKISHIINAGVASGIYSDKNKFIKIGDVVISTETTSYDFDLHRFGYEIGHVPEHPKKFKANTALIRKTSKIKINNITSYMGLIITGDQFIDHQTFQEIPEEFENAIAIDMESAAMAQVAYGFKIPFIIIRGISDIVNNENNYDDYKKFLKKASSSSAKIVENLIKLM
Procedure: as §3, §4

[5] = target: T3, Bgp (Borreliella burgdorferi, UniProt Q9F952); assay: as above; assay type: biochemical, Borrelia burgdorferi; conditions: MTA 100 µM, inhibitor 0 to 100 µM, read-out: Ki (inhibition constant)
T3 sequence (Q9F952 entry or part of it): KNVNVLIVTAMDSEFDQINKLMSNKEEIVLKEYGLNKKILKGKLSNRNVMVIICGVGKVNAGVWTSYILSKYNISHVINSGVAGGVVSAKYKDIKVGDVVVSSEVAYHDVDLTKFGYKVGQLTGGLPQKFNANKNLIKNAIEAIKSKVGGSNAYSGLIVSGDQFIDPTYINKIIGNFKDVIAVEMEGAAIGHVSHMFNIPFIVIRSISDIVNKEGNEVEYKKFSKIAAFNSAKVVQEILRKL
Procedure: The inhibited velocity (Vo’) and uninhibited velocity (Vo) values were determined, and the ratio of Vo’/Vo plotted as a function of inhibitor concentration. Ki values were calculated from these plots by fitting the data to the equation for competitive inhibition using GraphPad Prism:(2) Vo^′/Vo=Km+[S]/Km+[S]+(Km[I]/Ki)

[6] = target: T1, Pfs; assay: MTAN spectrophotometric activity assay (specific activity, Km); assay type: biochemical, Borrelia burgdorferi
Procedure: (§5) Recombinant MTANs were expressed and purified as previously described. Briefly, overnight 10 mL cultures of recombinant E. coli BL21(DE3) pLysS cells containing engineered pET30a expression plasmids for Bgp, MtnN or Pfs were grown at 37 °C with shaking (150 rpm) in LB broth supplemented with 50 µg/mL kanamycin and 0.5% glucose. The culture was diluted 1:50 in fresh medium and incubated at 37 °C with shaking (150 rpm) until the absorbance (600 nm) reached 0.4–0.6. Protein expression was induced with the addition of isopropyl β-D-1-thiogalactopyranoside (IPTG) to a final concentration of 1 mM and continued overnight incubation with shaking at 30 °C. Cells were harvested by centrifugation (10,000× g/15 min), and the pellet was washed once with ice-cold lysis buffer (50 mM sodium phosphate, pH = 8.0, 300 mM NaCl, 10 mM imidazole, 2mM β mercaptoethanol). Harvested cell pellets were resuspended in 10 mL fresh lysis buffer and lysed by sonication on ice using a Misonix Sonicator 300 (power setting 7, pulse 30 s, 1 min cooling with total sonication for 2.5 min). The cell lysates were centrifuged at 10,000× g for 15 min at 4 °C to remove debris, and the lysate was further filtered through a […] syringe filter to obtain a clear extract. Recombinant N-terminal hexahistidine tagged proteins were purified from the lysate using HisPur™ affinity columns (Thermo Scientific) according to the manufacturer’s specifications, and specifically eluted with 250 mM imidazole containing buffer (pH = 7). Eluted materials were analyzed by SDS-PAGE and Coomassie blue staining and found to be >95% homogeneous. Enzyme concentrations were determined using UV scans on a Cary100 spectrophotometer (Agilent) to determine the absorbance at 280 nm and applying extinction coefficients (0.1%) of 0.594 (Bgp), 0.637 (MtnN), and 0.404 (Pfs). Enzyme stocks (1 mg/mL) were prepared in 20% glycerol and stored at −80 °C.
as §1, §2

[7] = target: T2, MtnN; assay: as above; assay type: biochemical, Borrelia burgdorferi
Procedure: as §5, §1, §2

[8] = target: T3, Bgp; assay: as above; assay type: biochemical, Borrelia burgdorferi
Procedure: as §5, §1, §2

[9] = pH 7, 1 U = 1 µmol MTA hydrolyzed per minute

Question: `Nc1ncnc2c1ncn2[C@@H]1O[C@H](CI)[C@@H](O)[C@H]1O` [IADO, 5′-deoxy-5′-iodoadenosine] was tested. Which “activity relative to that found for MTA” value [1] did it give?
Answer: 3–6%

Question: What about the “recovery of live spirochetes” value ([2]; 2 µM and 10 µM, 21 days of subculture in media lacking MTAN inhibitors) of the same compound?
Answer: no live spirochetes were recovered

Question: What about the “Inhibitor Activity” value ([2]; Dose: 2 µM, 10 µM, 7 days of treatment, then subculture) of the same compound?
Answer: Bactericidal

Question: What about the “concentrations at which live spirochetes were recovered” value ([2]; after seven days of treatment) of the same compound?
Answer: ≤ 0.4 µM

Question: And the “concentrations that exert bactericidal activity” value ([2]; after seven days of treatment, bacteriostatic at lower concentrations)?
Answer: ≥ 1 µM

Question: What about the Ki [3] of the same compound?
Answer: 900 nM

Question: And the Ki [4]?
Answer: 2470 nM

Question: What about the Ki [5] of the same compound?
Answer: 630 nM

Question: And the “Specific Activity” value ([6]; pH 5, 1 U = 1 µmol MTA hydrolyzed per minute)?
Answer: 0.11 U/mg

Question: What about the “% Max Specific Activity” value ([6]; relative to MTA as a substrate) of the same compound?
Answer: 6%

Question: What about the “Specific Activity” value [7, 9] of the same compound?
Answer: 0.03 U/mg

Question: What about the “% Max Specific Activity” value ([7]; relative to MTA as a substrate) of the same compound?
Answer: 3%

Question: And the “Specific Activity” value [8, 9]?
Answer: 0.04 U/mg

Question: What about the “% Max Specific Activity” value ([8]; relative to MTA as a substrate) of the same compound?
Answer: 4%
